The structures appear in SMILES notation. Calls of active or inactive are those of the source. Rule as the data show it, for most assays here: actives have a measured EC50 and inactives only a lower limit.

Experiment [1] addresses T1, RNA-binding protein pos-1 (Caenorhabditis elegans, UniProt G5EF15).
T1 sequence (G5EF15 whole entry): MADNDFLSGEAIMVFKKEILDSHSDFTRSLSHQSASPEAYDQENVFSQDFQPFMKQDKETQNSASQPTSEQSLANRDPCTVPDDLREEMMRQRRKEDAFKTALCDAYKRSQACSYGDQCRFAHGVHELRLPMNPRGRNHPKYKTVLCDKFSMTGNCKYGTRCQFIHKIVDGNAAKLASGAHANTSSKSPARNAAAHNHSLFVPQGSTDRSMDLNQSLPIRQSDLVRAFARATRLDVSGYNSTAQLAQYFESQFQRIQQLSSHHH
As to the kind of experiment: disruptors of C. elegans POS-1 RNA interaction – biochemical, fluorescence polarization, dose response (AID 1964).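 Also: purified POS-1 fused to maltose binding protein made in E. coli; potency of compounds blocking POS-1 binding to fluorescent RNA.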 Background: Fluorescence polarisation rises when a labelled molecule tumbles more slowly, as on binding a larger partner.

A short description of experiment [2]: Luminescence Cell-Based Dose Response HTS to Identify Inhibitors of 5'UTR Stem-Loop Driven Prion Protein mRNA Translation in H4 Neuroglioblastoma Cells. [Related pubchem assays: 1827 (Project Summary), 1813 (Primary HTS)]. It is filed as functional.
The target in experiment [3] is T2, Zinc finger protein mex-5 (Caenorhabditis elegans, UniProt Q9XUB2).
T2 sequence (Q9XUB2 whole entry): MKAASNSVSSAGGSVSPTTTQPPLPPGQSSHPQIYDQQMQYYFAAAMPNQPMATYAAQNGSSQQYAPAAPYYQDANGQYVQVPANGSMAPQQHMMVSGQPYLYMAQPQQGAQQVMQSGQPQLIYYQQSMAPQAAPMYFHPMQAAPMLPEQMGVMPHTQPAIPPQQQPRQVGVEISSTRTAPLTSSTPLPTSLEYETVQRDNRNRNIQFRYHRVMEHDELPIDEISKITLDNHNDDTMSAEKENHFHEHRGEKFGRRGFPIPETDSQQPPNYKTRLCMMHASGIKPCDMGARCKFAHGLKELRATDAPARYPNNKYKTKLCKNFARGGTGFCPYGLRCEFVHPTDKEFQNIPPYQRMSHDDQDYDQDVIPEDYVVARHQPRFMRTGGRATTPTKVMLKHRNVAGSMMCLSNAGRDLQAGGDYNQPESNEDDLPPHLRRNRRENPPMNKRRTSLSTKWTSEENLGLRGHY
In words: potency of MEX-5 RNA-binding blockers – biochemical, C. elegans, fluorescence polarization, dose response (AID 1960).

The target in a further experiment is T3, ORF 73 (Human herpesvirus 8, UniProt O40947).
T3 sequence (O40947 whole entry): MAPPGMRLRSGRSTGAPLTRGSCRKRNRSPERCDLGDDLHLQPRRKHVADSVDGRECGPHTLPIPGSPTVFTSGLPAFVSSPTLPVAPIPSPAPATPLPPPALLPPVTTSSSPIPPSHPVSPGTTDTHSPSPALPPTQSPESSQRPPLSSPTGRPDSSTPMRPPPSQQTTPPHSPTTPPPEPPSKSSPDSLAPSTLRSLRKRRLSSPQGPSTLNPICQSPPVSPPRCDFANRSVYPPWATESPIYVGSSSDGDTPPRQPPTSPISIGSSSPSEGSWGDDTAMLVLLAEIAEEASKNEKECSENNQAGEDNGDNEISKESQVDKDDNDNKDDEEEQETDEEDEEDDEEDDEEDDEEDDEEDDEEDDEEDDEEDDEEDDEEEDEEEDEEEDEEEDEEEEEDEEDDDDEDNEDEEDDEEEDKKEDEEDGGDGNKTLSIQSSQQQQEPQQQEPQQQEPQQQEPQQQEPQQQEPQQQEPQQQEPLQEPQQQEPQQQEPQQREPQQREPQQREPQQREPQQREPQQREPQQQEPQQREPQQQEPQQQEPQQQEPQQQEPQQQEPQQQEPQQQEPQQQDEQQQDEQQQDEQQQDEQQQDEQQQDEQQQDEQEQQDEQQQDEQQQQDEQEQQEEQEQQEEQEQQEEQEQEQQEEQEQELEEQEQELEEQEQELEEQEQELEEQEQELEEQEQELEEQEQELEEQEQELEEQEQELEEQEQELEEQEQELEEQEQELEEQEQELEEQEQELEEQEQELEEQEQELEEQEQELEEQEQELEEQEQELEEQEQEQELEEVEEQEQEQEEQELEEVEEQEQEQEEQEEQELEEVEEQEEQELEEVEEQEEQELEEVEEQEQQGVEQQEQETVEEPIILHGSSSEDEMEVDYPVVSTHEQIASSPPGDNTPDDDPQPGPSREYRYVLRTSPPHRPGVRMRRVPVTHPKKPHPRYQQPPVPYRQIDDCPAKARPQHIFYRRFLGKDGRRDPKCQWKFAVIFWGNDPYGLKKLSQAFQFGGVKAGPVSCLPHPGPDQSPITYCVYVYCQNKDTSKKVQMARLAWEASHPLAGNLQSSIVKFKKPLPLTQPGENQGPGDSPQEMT
In words: KSHV LANA DNA-binding disruption – biochemical, fluorescence polarization, cherry-picked samples, dose response (AID 504725).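 Also: fluorescence polarization of a labeled DNA duplex reporting LANA DNA binding; potency is for inhibitors that block LANA binding to the DNA.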 More on the design: species or system Human gammaherpesvirus 8.

The next experiment has as its target T4, Insulin-degrading enzyme (Homo sapiens, UniProt P14735).
T4 sequence (P14735 whole entry): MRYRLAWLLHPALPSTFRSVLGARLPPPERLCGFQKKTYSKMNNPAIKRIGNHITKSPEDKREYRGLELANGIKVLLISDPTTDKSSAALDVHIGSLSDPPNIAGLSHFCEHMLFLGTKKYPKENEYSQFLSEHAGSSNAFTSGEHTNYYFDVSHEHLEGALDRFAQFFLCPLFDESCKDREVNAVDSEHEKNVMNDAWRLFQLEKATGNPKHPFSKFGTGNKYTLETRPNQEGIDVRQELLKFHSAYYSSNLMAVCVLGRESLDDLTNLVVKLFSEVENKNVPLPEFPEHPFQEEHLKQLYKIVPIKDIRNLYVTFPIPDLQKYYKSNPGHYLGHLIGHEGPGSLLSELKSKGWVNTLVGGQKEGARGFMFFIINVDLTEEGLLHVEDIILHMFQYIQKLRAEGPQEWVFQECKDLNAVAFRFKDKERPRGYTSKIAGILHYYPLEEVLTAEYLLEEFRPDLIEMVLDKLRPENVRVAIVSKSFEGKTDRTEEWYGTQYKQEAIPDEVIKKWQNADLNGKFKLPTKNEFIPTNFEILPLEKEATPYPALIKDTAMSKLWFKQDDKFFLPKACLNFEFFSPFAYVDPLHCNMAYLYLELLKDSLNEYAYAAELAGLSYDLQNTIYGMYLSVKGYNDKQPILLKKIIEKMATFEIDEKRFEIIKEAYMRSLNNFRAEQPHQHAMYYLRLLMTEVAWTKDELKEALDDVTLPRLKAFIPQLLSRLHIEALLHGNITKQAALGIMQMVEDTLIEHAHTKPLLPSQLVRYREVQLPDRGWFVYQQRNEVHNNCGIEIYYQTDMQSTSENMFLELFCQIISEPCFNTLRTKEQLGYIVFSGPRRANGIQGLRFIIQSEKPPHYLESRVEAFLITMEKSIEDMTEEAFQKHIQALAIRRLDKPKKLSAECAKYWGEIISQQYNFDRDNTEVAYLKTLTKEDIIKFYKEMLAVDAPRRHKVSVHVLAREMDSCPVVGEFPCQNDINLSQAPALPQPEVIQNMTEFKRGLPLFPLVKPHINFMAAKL
As to the kind of experiment: cellular IDE activation of Abeta substrate cleavage – fluorescence polarization, HEK cells, dose response (AID 588439). It is filed as functional, cell-based.

Broadly, the EC50 is the concentration needed to bring the measured effect to its halfway point. As for `Oc1ccc2ccccc2c1/C=N/Nc1nnc(-c2ncc[nH]2)c2ccccc12`, the results for the EC50 in experiment [1], in experiment [2] and in experiment [3] were 48.7 µM (inconclusive), 0.292 µM (active) and 2.45 µM (active), respectively.

A word on the AC50: it is the midpoint of the concentration-response curve, whichever way the signal moves. Consider `CC(C)C(C(=O)O)N1C(=O)/C(=C/C=C/c2ccco2)SC1=S` (stereo not drawn), for which the results for the EC50 in experiment [1] and in experiment [3] were 11 µM (inconclusive) and 19.4 µM (inconclusive), respectively. On ORF 73, the AC50 was 45.6 µM (active).

Consider `O=C1CCN2C=Nc3cccc4ccc1c2c34`, for which the AC50 on ORF 73 is 1.42 µM (active). Further, the EC50 on Insulin-degrading enzyme is > 54.7 µM (inactive).
